Patent publication US12084422B2, “Phenyl-n-quinoline derivatives for treating a RNA virus infection” (ABIVAX, priority 2018, dated 2024)

Columns and labels:
[1] = system: Chikungunya Virus (CHIKV) strain LR2006-OPY1 with GFP modification (CHIK 5'LR); test: Inhibition of Chikungunya virus (CHIKV) production in infected HEK293T cell line (GFP fluorescence); assay type: cell-based; settings: HEK-293T, infected HEK293T cells; for inhibition at 1 µM: compounds at 1 μM, MOI 0.1, 22 h, values above 100 lowered to 100, read-out: % CHIKV Inhibition Mean (n = 2); for IC50: second round of experiments
Protocol: The ability of the compounds to inhibit viral replication was assessed with an experiment in which infected cells were treated by compounds of formula (I) at 1 μM. As a positive control for inhibition of Chikungunya, Ribavirin was used. Toxicity of the compounds was assessed in parallel.
Human embryonic kidney cells 293T (HEK293T, CRL-11268) were maintained in Dulbecco's modified Eagle's Medium (DMEM, 31966-021, Thermo Fisher Scientific) supplemented with 10% of fetal bovine serum (FBS), penicillin and streptomycin. After removal of the medium, cells were washed with a Ca^2+- and Mg^2+-free salt solution to remove all traces of serum. After aspiration of wash solution, cells were dissociated with 0.25% Trypsin-EDTA solution and incubated 30 s at least in 37° ° C. incubator. Concentration of cell suspension was determined by an automatic cell counter (EVE, NanoEntek) and, if needed, adjusted to 0.33×10^6 cells/mL with DMEM medium supplemented with 10% FBS.
100 μL of the cell suspension were dispatched in a ViewPlate-96 Black (6005182, PerkinElmer) and in a transparent 96-well cell culture plate (655180, Greiner bio-one). After an incubation for 24 h at 37° C. under 5% of CO2, compounds were added at the proper concentration.
An intermediate dilution was prepared with DMSO (D8418, Sigma) at 2 mM in a 96-well V-bottom microplate from the stock solution:
Mix 1 μL of the 50 mM stock library in 25 μL of DMSO.
Mix 2 μL of the 25 mM stock library in 25 μL of DMSO.
An intermediate dilution was prepared with DMSO (D8418, Sigma) at 25 mM in a 96-well V-bottom microplate from the stock solution:
Mix 2 μL of the 50 mM stock library in 2 μL of DMSO.
Serial dilutions were performed in 2 μL of DMSO 13 times to reach 0.0015 mM as follows in table III:
For both screen and determination of IC50 1 μL of each solution was added in a 1 mL Masterblock 96 wells (Greiner bio-one, 780261) containing 1 mL of DMEM medium. As a positive control, 5 μL of a 80 mM Ribavirin solution (R9644, Sigma) is added to 1 mL of DMEM. On the other hand, DMSO is used as a negative control.
[…]. Vector Borne Zoonotic Dis. 2006; 6(4)). This modified virus was used to infect cells at MOI 0.1. […].
Medium was removed after 22 h at 37° ° C. under 5% of CO2 and cells were washed as described above. 60 μL of RIPA buffer (50 mM Tris-HCl pH8, 100 mM NaCl, 1 mM MgCl2, 1% Triton X-100) was added to cells and incubated for at least 20 min before reading fluorescence signal. Pierce 660 nm Protein Assay Reagent (22660, Thermo scientific) was used to normalize fluorescence signal by protein quantity.
A first round of experiments has been performed wherein the results are expressed as inhibition percentage, which is calculated as follows, through the following steps:
1. Fluorescence intensity (FI) 509 nm/Absorbance 660 nm (A660)=A
This ratio allows considering the infection (GFP virus) to the protein amount.
2. A′=A—background noise of non-infected plate,
3. B=Fluorescence intensity (FI)/Absorbance 660 nm (A660) of infected but non treated plates,
4. C=A′/B which is then converted as the percentage of infection after treatment, compared to non-treated sample, and subsequently as the […]. For instance, a value of 100 in Table IV here below means that, after treatment, the signal attributed to GFP fluorescence is abolished, which is correlated to the absence of infection.
This value corresponds to the inhibition's percentage.
The following Table IV encompasses said C′ value for some compounds as calculated above with a mean of 2 experiments, and the corresponding standard deviation.
Some values were originally above 100. In these cases, the value has been lowered to 100. This means that some molecules also have an impact on the viability of the cells. In other words, the A value may be lower than the background noise.
Moreover, for each measure, the test was performed with Ribavirin as control. The value of the inhibition percentage was checked, giving 100%.

[2] = system: DENV-2 strain 16681; test: Screening for DENV-2 inhibition using Viral ToxGlo assay in A549 cells; assay type: cell-based, Dengue 2 virus; settings: Dengue virus, DENV2, A549, 120 h, read-out: % DENV-2 Inhibition Mean (n = 3)
Protocol: Protocol for Screening Antiviral Compounds for DENV-2 Inhibition and Cytotoxicity Using Viral ToxGlo Assay
A549 cells were maintained in Dulbecco's Modified Eagle Medium (DMEM) supplemented with 10% fetal bovine serum, 100 U/ml penicillin and 100 μg/ml streptomycin. For the purposes of the screening assay they were grown to 90% confluency, trypsinized and recovered. The trypsin was neutralised with cell culture media and cells were centrifuged at 150×g for 5 minutes before discarding the supernatant and resuspending cell pellet in assay media (DMEM supplemented with 2% fetal bovine serum and 100 U/ml penicillin and 100 μg/ml streptomycin). The cells were seeded into 96-well white clear-bottomed cell culture plates at a density of 1.0×10^4 cells/well in 50 μl. For the media/background control column assay media only was added. Cell plates were placed in a humid chamber and incubated overnight at 37° C./5% CO2. After overnight incubation cells were checked for confluency and healthy appearance.
Test compounds were prepared at a final concentration of 10 μM, in a maximum DMSO concentration of 1% (final assay concentration maximal 0.1% DMSO) and added to the cell plates in volumes of 10 μl. For cell control and virus control wells the test article solvent only was added. As a positive inhibition control, 7-Deaza-2′-C-methyladenosine was added at 100 μM in 3 wells. Virus (DENV-2 strain 16681) or assay media for cytotoxicity test wells and media/cell control wells was added immediately after test articles at an MOI of 0.5, 40 for 96 well plates respectively. Virus suspension was prepared by thawing DENV-2 frozen stocks and diluting to the required concentration of plaque forming units in assay media.
Cell plates were further incubated inside a humid chamber for 5 days p.i at 37° C./5% CO2. After the incubation period cells were observed under the microscope to check for characteristic cytopathic effect in virus control wells and healthy cells in the cell control wells. After plates were adjusted to room temperature 20 μl Viral ToxGlo (Promega) was added to each well of the 96-well cell plates. Plates were incubated at room temperature for 5 minutes before measuring the luminescence on a spectrophotometer (Envision, PerkinElmer).
DENV-2 inhibition was calculated as percentage of cytopathic effect inhibition relative to the virus control and cytotoxicity as percentage of cell survival relative to cell control wells.

Compound | inhibition at 1 µM [1] [%] | IC50 [1] [nM] | inhibition at 10 µM [2] [%]
CCc1cc(OC(F)(F)F)ccc1Nc1ccc2cccc(Cl)c2n1 [Compound 2, 8-chloro-N-(2-ethyl-4-(trifluoromethoxy)phenyl)quinolin-2-amine] | 100 | 1 to 200 | 
CC(C)Cc1cc(OC(F)(F)F)ccc1Nc1ccc2cccc(Cl)c2n1 [Compound 3, 8-chloro-N-(2-isobutyl-4-(trifluoromethoxy)phenyl)quinolin-2-amine] | 100 |  | 
FC(F)(F)Oc1ccc(Nc2ccc3cccc(Cl)c3n2)c(C2CC2)c1 [Compound 4, 8-chloro-N-(2-cyclopropyl-4-(trifluoromethoxy)phenyl)quinolin-2-amine] | 100 | 1 to 200 | 
CCc1cc(OC(F)(F)F)cc(C)c1Nc1ccc2cccc(Cl)c2n1 [Compound 5, 8-chloro-N-(2-ethyl-6-methyl-4-(trifluoromethoxy)phenyl)quinolin-2-amine] |  |  | 156
CCc1cc(OC(F)(F)F)ccc1Nc1ccc2ccccc2n1 [Compound 7, N-(2-ethyl-4-(trifluoromethoxy)phenyl)quinolin-2-amine] | 99 |  | 
FC(F)(F)Oc1ccc(Nc2ccc3ccccc3n2)c(C2CC2)c1 [Compound 8, N-(2-cyclopropyl-4-(trifluoromethoxy)phenyl)quinolin-2-amine] | 100 |  | 
CCOc1ccc(Nc2ccc3cccc(Cl)c3n2)c(C)c1 [Compound 12, 8-chloro-N-(4-ethoxy-2-methylphenyl)quinolin-2-amine] | 95 |  | 129
Cc1cc(OCCOC(F)(F)F)ccc1Nc1ccc2cccc(Cl)c2n1 [Compound 14, 8-chloro-N-(2-methyl-4-(2-(trifluoromethoxy)ethoxy)phenyl)quinolin-2-amine] | 91 |  | 
Cc1cc(OC2CCCC2)ccc1Nc1ccc2cccc(Cl)c2n1 [Compound 16, 8-chloro-N-(4-(cyclopentyloxy)-2-methylphenyl)quinolin-2-amine] | 98 | 1 to 200 | 77
Cc1cc(OC2CCCCC2)ccc1Nc1ccc2cccc(Cl)c2n1 [Compound 17, 8-chloro-N-(4-(cyclohexyloxy)-2-methylphenyl)quinolin-2-amine] | 100 | 1 to 200 | 
CC(C)Oc1ccc(Nc2ccc3cccc(Cl)c3n2)c(C2CC2)c1 [Compound 20, 8-chloro-N-(2-cyclopropyl-4-isopropoxyphenyl)quinolin-2-amine] | 99 | 1 to 200 | 94
Cc1c(Nc2ccc3cccc(Cl)c3n2)ccc(OC(C)C)c1C [Compound 21, 8-chloro-N-(4-isopropoxy-2,3-dimethylphenyl)quinolin-2-amine] | 100 | 1 to 200 | 
Cc1cc(OC2CCC2)ccc1Nc1ccc2cccc(Cl)c2n1 [Compound 22, 8-chloro-N-(4-cyclobutoxy-2-methylphenyl)quinolin-2-amine] | 100 | 1 to 200 | 82
Cc1cc(OCc2ccccn2)ccc1Nc1ccc2cccc(Cl)c2n1 [Compound 23, 8-chloro-N-(2-methyl-4-(pyridin-2-ylmethoxy)phenyl)quinolin-2-amine] | 82 |  | 
Fc1ccccc1Oc1ccc(Nc2ccc3ccccc3n2)cc1 [Compound 29, N-(4-(2-fluorophenoxy)phenyl)quinolin-2-amine] | 97 |  | 
Cc1ccc(Oc2ccc(Nc3ccc4cccc(Cl)c4n3)cc2)cc1 [Compound 31, 8-chloro-N-(4-(p-tolyloxy)phenyl)quinolin-2-amine] | 93 |  | 
Fc1ccccc1Oc1ccc(Nc2ccc3cccc(Cl)c3n2)cc1 [Compound 32, 8-chloro-N-(4-(2-fluorophenoxy)phenyl)quinolin-2-amine] | 90 |  | 
CCc1cc(Oc2ccccc2F)ccc1Nc1ccc2ccccc2n1 [Compound 39, N-(2-ethyl-4-(2-fluorophenoxy)phenyl)quinolin-2-amine] | 99 | 1 to 200 | 104
Cc1cc(OC(C)C)c(C(C)C)cc1Nc1ccc2cccc(Cl)c2n1 [Compound 40, 8-chloro-N-(4-isopropoxy-5-isopropyl-2-methylphenyl)quinolin-2-amine] |  | 1 to 200 | 97
CCc1cc(OC2CCC2)ccc1Nc1ccc2cccc(Cl)c2n1 [Compound 41, 8-chloro-N-(4-cyclobutoxy-2-ethylphenyl)quinolin-2-amine] |  | 1 to 200 | 
Clc1cccc2ccc(Nc3ccc(OC4CCC4)cc3C3CC3)nc12 [Compound 42, 8-chloro-N-(4-cyclobutoxy-2-cyclopropylphenyl)quinolin-2-amine] |  | 1 to 200 | 84
COc1ccc(Oc2ccc(Nc3ccc4ccccc4n3)c(C)c2)c(F)c1 [Compound 45, N-(4-(2-fluoro-4-methoxyphenoxy)-2-methylphenyl)quinolin-2-amine] |  | 1 to 200 | 
Cc1cc(Oc2ccccc2F)c(C)cc1Nc1ccc2cccc(Cl)c2n1 [Compound 63, 8-chloro-N-(4-(2-fluorophenoxy)-2,5-dimethylphenyl)quinolin-2-amine 2,2,2-trifluoroacetate] |  |  | 74
CCc1cc(Oc2ccc(OC)cc2F)ccc1Nc1ccc2ccccc2n1 [Compound 76, N-(2-ethyl-4-(2-fluoro-4-methoxyphenoxy)phenyl)quinolin-2-amine] |  |  | 78
COc1ccc(Oc2ccc(Nc3ccc4ccccc4n3)cc2)c(F)c1 [Compound 77, N-(4-(2-fluoro-4-methoxyphenoxy)phenyl)quinolin-2-amine] |  |  | 87
